Biological target: T1, Calpain-1 catalytic subunit (Homo sapiens, UniProt P07384)
T1 sequence (P07384 whole entry): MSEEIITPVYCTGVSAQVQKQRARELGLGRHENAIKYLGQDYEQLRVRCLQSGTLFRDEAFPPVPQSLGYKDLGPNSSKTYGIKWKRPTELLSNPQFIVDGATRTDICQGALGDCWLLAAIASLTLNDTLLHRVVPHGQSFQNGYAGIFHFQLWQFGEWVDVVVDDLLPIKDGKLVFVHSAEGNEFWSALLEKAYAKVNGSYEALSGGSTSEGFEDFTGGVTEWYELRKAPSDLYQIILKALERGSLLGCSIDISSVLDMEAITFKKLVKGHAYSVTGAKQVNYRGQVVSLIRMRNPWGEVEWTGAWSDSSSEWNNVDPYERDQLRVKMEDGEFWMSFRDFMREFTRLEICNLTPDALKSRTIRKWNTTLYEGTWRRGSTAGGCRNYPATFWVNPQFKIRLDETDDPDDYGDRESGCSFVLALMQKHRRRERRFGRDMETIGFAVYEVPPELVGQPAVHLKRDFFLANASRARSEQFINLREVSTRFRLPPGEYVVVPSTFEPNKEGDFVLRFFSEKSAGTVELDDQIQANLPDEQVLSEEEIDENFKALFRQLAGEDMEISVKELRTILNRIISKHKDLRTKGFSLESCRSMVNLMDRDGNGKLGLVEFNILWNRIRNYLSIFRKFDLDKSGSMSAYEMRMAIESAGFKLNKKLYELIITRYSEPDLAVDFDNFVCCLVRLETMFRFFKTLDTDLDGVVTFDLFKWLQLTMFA
Experiment: Inhibitory activity against calpain

IC50: 1400 nM
SMILES: NC(=O)CCc1cc[nH]c1

Source: ChEMBL document CHEMBL1129109, “Synthesis of cystamidin a (pyrrole-3-propanamide), a reported calpain inhibitor” (Bioorg Med Chem Lett, 1996)
